In patent US8557800B2, “Sphingosine kinase inhibitors” (Apogee Biotechnology Corporation, priority 2005, dated 2013):

Experiments:
recombinant human SK = experiment: Inhibition of recombinant human SK, LC/MS/MS assay; assay type: biochemical; details: 6 μg/ml compound
Procedure, shortened: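 Enzyme incubated with unlabeled sphingosine and ATP (1 mM, as in the radiometric format) for 30 min, then stopped and extracted with acetonitrile. S1P quantified by C8 reverse-phase HPLC–MS/MS against C17 sphingosine and C17 S1P internal standards using calibration curves.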

[1] = system: endogenous SK in MDA-MB-231 human breast carcinoma cells; experiment: Intact cell SK assay, conversion of [3H]sphingosine to [3H]S1P; assay type: cell-based; details: MDA-MB-231 cells, 20 μg/ml compound
Description: The cells take up the exogenous [^3H]sphingosine and convert it to [^3H]S1P through the action of endogenous SK. The resulting [^3H]S1P is isolated via charge-based separation as indicated above. […] For potency studies, MDA-MB-231 cells were exposure to varying concentrations of a test Compound and then assayed for conversion of [^3H]sphingosine to [^3H]S1P.

[2] = system: MCF-7 human breast adenocarcinoma cells; experiment: Cytotoxicity, SRB binding assay; assay type: cell-based; details: MCF7, inhibition of cell proliferation, 48 h, read-out: MCF-7 IC50
Procedure, shortened: (§1)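 Cells exposed to varying compound doses for 48 h, then survival measured by sulforhodamine B staining. IC50 is the concentration giving 50% proliferation inhibition, in μM, as mean±sd of replicate trials.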

[3] = system: MCF-10A non-transformed human breast epithelial cells; experiment: Cytotoxicity, SRB binding assay; assay type: cell-based; details: inhibition of cell proliferation, 48 h, read-out: MCF-10A IC50
Procedure, shortened: as §1

[4] = system: mouse JC mammary adenocarcimona cell line growing subcutaneously in Balb/c mice; details: JC tumor model, intraperitoneal (ip) or oral (po) administration
Procedure: The antitumor activity of the representative SK inhibitors were evaluated using a syngeneic tumor model that uses the mouse JC mammary adenocarcimona cell line growing subcutaneously in immunocompetent Balb/c mice (Lee et al., 2003, Oncol Res 14: 49).
In FIG. 1, Balb/c mice, 6-8 weeks old, were injected subcutaneously with 10^6 JC cells suspended in phosphate-buffered saline. The SK inhibitors Compounds 62 and 57 were dissolved in PEG400 and administered to mice every-other day at a dose of 100 mg/kg. Body weights and tumor volumes were monitored daily. In FIG. 1, tumor growth is expressed as the tumor volume relative to day 1 for each animal.

[5] = system: C57BL/6 mice, DSS model of IBD; experiment: Acute DSS-colitis model; assay type: in vivo, mouse; details: 2% DSS, 50 mg/kg oral daily
Procedure: We have conducted experiments with SK inhibitors using the dextran sulfate sodium (DSS) model of IBD. In these experiments, male C57BL/6 mice were provided with standard rodent diet and water ad libitum. After their acclimation, the animals were randomly divided into groups of 5 or 6 for DSS (40,000 MW from ICN Biomedicals, Inc., Aurora, Ohio)—and drug-treatment. The SK inhibitors were dissolved in PEG400, and given once daily by oral gavage in a volume of 0.1 mL per dose. Dipentum, an FDA-approved anti-colitis drug whose active ingredient, olsalazine, is converted to 5-aminosalicylic acid in vivo, was used as a positive control. The mice were given normal drinking water or 2% DSS and treated orally with an SK inhibitor or Dipentum at a dose of 50 mk/kg daily. The body weight of each animal was measured each day, and the Disease Activity Index (DAI) was scored for each animal on Days 4-6. On Day 6, the animals were sacrificed by cervical dislocation and the entire colon was removed and measured to the nearest 0.1 cm. Portions of the colons were then fixed, sectioned and their histologies were assessed on a blinded basis to determine their Histology Score. Other portions of the colons were used for biochemical analyses of inflammation markers.

[6] = system: mice, multiple cycles of DSS-induced inflammation; experiment: Chronic DSS-colitis model (35-day); assay type: in vivo, mouse
Procedure: FIG. 13. Effects of Compound 62 on the DAI in the chronic DSS-colitis model. Mice received 2 cycles (7 days per cycle) of DSS (1.5% cycle 1 and 1% cycle 2), 2 cycles of normal drinking water and were randomized by DAI on Day 28 into groups of 8 mice. The mice were then treated as follows: No DSS (▪)—normal drinking water and orally dosed with PEG400 every day for 7 days (water control); DSS alone (▴)—drinking water containing 1.5% DSS and orally dosed with PEG daily for 7 days; DSS+Compound 62 (▾)—drinking water containing 1.5% DSS and orally dosed with Compound 62 (50 mg/kg) every day for 7 days; DSS+Dipentum (♦)—drinking water containing 1.5% DSS and orally dosed with Dipentum (50 mg/kg). *p<0.001 versus No DSS group.
A 35-day model of IBD was used to evaluate the effectiveness of the SK inhibitors in mice that experience multiple cycles of DSS-induced inflammation. This chronic model is similar to the acute model, except that the DSS concentration in the drinking water is lower and animals receive periodic exposure to DSS (DSS on days 1-7, water on Days 8-13, DSS on day 14-21, water on Days 22-27 and then DSS until the completion of the study on Day 35). In these experiments, treatment of the mice with an SK inhibitor or Dipentum began on Day 28 and continued daily until the completion of the study. The DAI index was monitored every other day until Day 28 and then daily until Day 35. Animals were sacrificed on Day 35, and changes in the colon length and cytokine profiles were measured.

SMILES	Recombinant SK (% inhibition) (recombinant human SK)	IC50 [2]	IC50 [3]	further results
O=C(NCCc1ccncc1)C12CC3CC(CC(C3)C1)C2 [Compound 63, Adamantane-1-carboxylic acid (2-pyridin-4-yl-ethyl)-amide]	0%	11 µM		Cellular S1P (% inhibition) [1]: 39%
CCn1c2ccccc2c2cc(/C=C/C(=O)C34CC5CC(C3)CC(c3ccc(Cl)cc3)(C5)C4)ccc21 [Compound 136, 1-[3-(4-Chloro-phenyl)-adamantan-1-yl]-3-(9-ethyl-9H-carbazol-3-yl)-propenone]		8 µM		melting point: 138 to 140 °C
CCn1c2ccccc2c2cc(NCC34CC5CC(C3)CC(c3ccc(Cl)cc3)(C5)C4)ccc21 [Compound 89, [3-(4-Chloro-phenyl)-adamantan-1-ylmethyl]-(9-ethyl-9H-carbazol-3-yl)-amine]	37%	74 µM	41 µM	Cellular S1P (% inhibition) [1]: 1%
O=C(NCCc1ccc(O)c(O)c1)C12CC3CC(C1)CC(c1ccc(Cl)cc1)(C3)C2 [Compound 44, 3-(4-Chloro-phenyl)-adamantane-1-carboxylic acid [2-(3,4-dihydroxy-phenyl)-ethyl]-amide]		6 µM	9 µM	In vivo activity [4]: active - ip
CN1CCC(NC(=O)C23CC4CC(C2)CC(c2ccc(Cl)cc2)(C4)C3)CC1 [Compound 51, 3-(4-Chloro-phenyl)-adamantane-1-carboxylic acid (1-methyl-piperidin-4-yl)-amide]	84%	8 µM	25 µM	In vivo activity [4]: active - ip and po
CC(C)NC(=O)C12CC3CC(C1)CC(c1ccc(Cl)cc1)(C3)C2 [Compound 1, 3-(4-Chloro-phenyl)-adamantane-1-carboxylic acid isopropylamide]	38%	23 µM	151 µM	
O=C(NCCN1CCOCC1)C12CC3CC(C1)CC(c1ccc(Cl)cc1)(C3)C2 [Compound 58, 3-(4-Chloro-phenyl)-adamantane-1-carboxylic acid (2-morpholin-4-yl-ethyl)-amide]	67%	20 µM	36 µM	
CCn1c2ccccc2c2cc(NC(=O)C34CC5CC(C3)CC(c3ccc(Cl)cc3)(C5)C4)ccc21 [Compound 68, 3-(4-Chloro-phenyl)-adamantane-1-carboxylic acid (9-ethyl-9H-carbazol-3-yl)-amide]	17%	54 µM	104 µM	
O=C(NCCc1ccncc1)C12CC3CC(C1)CC(c1ccc(Cl)cc1)(C3)C2 [Compound 64, 3-(4-Chloro-phenyl)-adamantane-1-carboxylic acid (2-pyridin-4-yl-ethyl)-amide]	41%	8 µM	20 µM	
O=C(NCCc1ccc(Br)cc1)C12CC3CC(C1)CC(c1ccc(Cl)cc1)(C3)C2 [Compound 39, 3-(4-Chloro-phenyl)-adamantane-1-carboxylic acid [2-(4-bromo-phenyl)-ethyl]-amide]	19%	15 µM	106 µM	
Oc1ccc(NCC23CC4CC(C2)CC(c2ccc(Cl)cc2)(C4)C3)cc1 [Compound 76, 4-{[3-(4-Chloro-phenyl)-adamantan-1-ylmethyl]-amino}-phenol]	42%	5 µM		melting point: 138 to 140 °C
CC(NC1CCN(C)CC1)C12CC3CC(CC(c4ccc(Cl)cc4)(C3)C1)C2 (stereo not drawn) [Compound 107, {1-[3-(4-Chloro-phenyl)-adamantan-1-yl]-ethyl}-(1-methyl-piperidin-4-yl)-amine]		1 µM	1 µM	In vivo activity [4]: active - ip
O=C(/C=C/c1ccc(O)cc1)C12CC3CC(C1)CC(c1ccc(Cl)cc1)(C3)C2 [Compound 132, 1-[3-(4-Chloro-phenyl)-adamantan-1-yl]-3-(4-hydroxy-phenyl)-propenone]	8%	17 µM		melting point: 87 to 89 °C
O=C(O)c1cc(/N=N/c2ccc(O)c(C(=O)O)c2)ccc1O [Dipentum, olsalazine, reference compound]				elevations of colon pro-inflammatory proteins IFN-γ, IL-1β, IL-6 and TNFα [5]: attenuated; increase in colon myeloperoxidase (MPO) activity [5]: markedly attenuated; Histology Score vs DSS-alone animals ([5]; Day 6): consistently lower; colon length ([5]; Day 6): intermediate length; Disease Activity Index (intensity of IBD manifestations) ([5]; Days 4-6): reduced; colon length ([6]; 50 mg/kg oral daily Day 28-35, DSS alone 4.9±0.2, water 7.8±0.3): 6.1±0.2 cm; increase in DAI ([6]; 50 mg/kg oral daily from Day 28 to Day 35, third DSS exposure): significantly suppressed; serum level of IL-6 ([6]; at sacrifice, Day 35): reduced; colon levels of pro-inflammatory cytokines TNFα, IL-1β, IFN-γ and IL-6 ([6]; treated during the final DSS cycle): equivalent to the DSS-alone group
O=C(NCCc1ccccc1)C12CC3CC(C1)CC(c1ccc(Cl)cc1)(C3)C2 [Compound 37, 3-(4-Chloro-phenyl)-adamantane-1-carboxylic acid phenethyl-amide]	24%	5 µM	127 µM	
O=C(NCCc1ccc(F)cc1)C12CC3CC(C1)CC(c1ccc(Cl)cc1)(C3)C2 [Compound 38, 3-(4-Chloro-phenyl)-adamantane-1-carboxylic acid [2-(4-fluoro-phenyl)-ethyl]-amide]	40%	9 µM	40 µM	
O=C(/C=C/c1ccc2ccccc2c1)C12CC3CC(C1)CC(c1ccc(Cl)cc1)(C3)C2 [Compound 133, 1-[3-(4-Chloro-phenyl)-adamantan-1-yl]-3-naphthalen-2-yl-propenone]	36%	13 µM		melting point: 82 to 84 °C
O=C(NCc1ccc(O)c(O)c1)C12CC3CC(C1)CC(c1ccc(Cl)cc1)(C3)C2 [Compound 36, 3-(4-Chloro-phenyl)-adamantane-1-carboxylic acid 3,4-dihydroxy-benzylamide]	37%	13 µM	9 µM	Cellular S1P (% inhibition) [1]: 72%
COc1ccc(CCNC(=O)C23CC4CC(C2)CC(c2ccc(Cl)cc2)(C4)C3)cc1 [Compound 41, 3-(4-Chloro-phenyl)-adamantane-1-carboxylic acid [2-(4-methoxy-phenyl)-ethyl]-amide]	67%	6 µM	71 µM	Cellular S1P (% inhibition) [1]: 23%
